From PMC7558399, “In Vitro Selective Growth-Inhibitory Activities of Phytochemicals, Synthetic Phytochemical Analogs, and Antibiotics against Diarrheagenic/Probiotic Bacteria and Cancer/Normal Intestinal Cells” (Pharmaceuticals, 2020)
Where a name gives a salt, the structure may show the parent alone. Read-outs that look alike come from different tables or passages of the source.

Tests used:
Assay type in all cases: cell-based
[1] = tested on: Bacillus cereus (ATCC 14579); assay: Broth microdilution MIC, B. cereus; conditions: ATCC14579, […], median/mode, read-out: MIC
[2] = tested on: Clostridium difficile (DSMZ 12056); assay: microbe, parasite or virus in culture; conditions: Clostridioides difficile, DSMZ12056; Clostridium difficile; […]; read-out: MIC
[3] = tested on: Clostridium perfringens (DSMZ 11778); assay: microbe, parasite or virus in culture; conditions: DSMZ11778
[4] = tested on: Enterococcus faecalis (ATCC 29212); assay: Broth microdilution MIC, E. faecalis; conditions: ATCC29212, […], read-out: MIC
[5] = tested on: Escherichia coli (ATCC 25922); assay: Broth microdilution MIC, E. coli; conditions: ATCC25922, […], read-out: MIC
[6] = tested on: E. coli 0175:H7 (NCTC 12900); assay: microbe, parasite or virus in culture; conditions: Escherichia coli, NCTC12900
[7] = tested on: Listeria monocytogenes (ATCC 7644); assay: Broth microdilution MIC, L. monocytogenes
[8] = tested on: Shigella flexneri (ATCC 12022); assay: microbe, parasite or virus in culture
[9] = tested on: Salmonella enterica ssp. enterica serovar Enteritidis (ATCC 13076); assay: Broth microdilution MIC, Salmonella Enteritidis; conditions: Salmonella Enteritidis, […], read-out: MIC
[10] = tested on: S. enterica ssp. enterica serovar Typhimurium (ATCC 14028); assay: Broth microdilution MIC, Salmonella Typhimurium; conditions: Salmonella Typhimurium, […], read-out: MIC
[11] = tested on: Vibrio parahaemolyticus (ATCC 17802); assay: Broth microdilution MIC, V. parahaemolyticus; conditions: ATCC17802, […], read-out: MIC
[12] = tested on: Yersinia enterocolitica (ATCC 9610); assay: Broth microdilution MIC, Y. enterocolitica; conditions: ATCC9610, […], read-out: MIC
[13] = tested on: diarrheagenic bacteria (12 strains); assay: microbe, parasite or virus in culture
[14] = tested on: Bacteroides fragilis (ATCC 25285); assay: Broth microdilution MIC, B. fragilis
[15] = tested on: Bifidobacterium adolescentis (DSMZ 20087); assay: Broth microdilution MIC, B. adolescentis
[16] = tested on: Bifidobacterium animalis spp. lactis (DSMZ 10140); assay: Broth microdilution MIC, B. animalis spp. lactis; conditions: DSMZ10140
[17] = tested on: Bifidobacterium bifidum (ATCC 29521); assay: Broth microdilution MIC, B. bifidum
[18] = tested on: Bifidobacterium breve (ATCC 15700); assay: Broth microdilution MIC, B. breve
[19] = tested on: Bifidobacterium longum ssp. longum (DSMZ 20219); assay: Broth microdilution MIC, B. longum ssp. longum; conditions: DSMZ20219
[20] = tested on: Lactobacillus casei (DSMZ 20011); assay: Broth microdilution MIC, L. casei; conditions: Lacticaseibacillus casei, DSMZ20011; Lactobacillus casei; […]; read-out: MIC
[21] = tested on: Lactobacillus reuteri (CCM 3625); assay: Broth microdilution MIC, L. reuteri; conditions: Limosilactobacillus reuteri, CCM3625
[22] = tested on: Lactobacillus rhamnosus (CCM 7091); assay: Broth microdilution MIC, L. rhamnosus; conditions: Lacticaseibacillus rhamnosus, CCM7091; Lactobacillus rhamnosus; […]; read-out: MIC
[23] = tested on: probiotic bacteria (9 strains); assay: Broth microdilution MIC, probiotic bacteria as a group (mean or range over strains)
[24] = tested on: HT29 (ATCC HTB 38) intestinal cancer cells; assay: MTT cytotoxicity assay, HT29; conditions: Homo sapiens; for IC50: read-out: IC50 ± SD; for IC80: read-out: IC80 ± SD (80% inhibitory concentration of proliferation)
[25] = tested on: Caco-2 (ATCC HTB 37) intestinal cancer cells; assay: MTT cytotoxicity assay, Caco-2; conditions: Homo sapiens, Caco-2, 72 h; for IC50: read-out: IC50 ± SD; for IC80: read-out: IC80 ± SD (80% inhibitory concentration of proliferation)
[26] = tested on: intestinal cancer cells (HT29 and Caco-2); assay: MTT cytotoxicity assay, mean for intestinal cancer cells; conditions: for IC50: read-out: x¯ -CC ± SD: mean IC50 for intestinal cancer cells; for IC80: read-out: x¯ -CC ± SD: mean IC80 for intestinal cancer cells
[27] = tested on: FHs 74 Int (ATCC CCL 241) intestinal normal cells; assay: MTT cytotoxicity assay, FHs 74 Int; conditions: 72 h; for IC50 / IC80: FHs74Int
[28] = mean of 12 strains, >512 replaced with 1024, read-out: x¯ -DB ± SD: mean MIC for diarrheagenic bacteria
[29] = FHs 74 Int (intestinal normal cells), MTT

Compound | MIC [1] [µg/mL] | MIC [2] [µg/mL] | MIC [3] [µg/mL] | MIC [4] [µg/mL] | MIC [5] [µg/mL] | MIC [6] [µg/mL] | MIC [9] [µg/mL] | MIC [10] [µg/mL] | MIC [11] [µg/mL] | MIC [12] [µg/mL] | MIC [13, 28] [µg/mL] | MIC [20] [µg/mL] | MIC [22] [µg/mL] | IC50 [25] [µg/mL] | IC80 [25] [µg/mL] | IC50 [26] [µg/mL] | IC80 [26] [µg/mL] | further results
C[n+]1cc2c3c(ccc2c2ccc4cc5c(cc4c21)OCO5)OCO3 [SG, sanguinarine chloride] | 128 | 64 | 128 | 32 | 256 | 128 | 256 | 512 | 32 | 256 | 156 ± 137 | 32 | 64 | 0.8 ± 0.1 | 1.5 ± 0.1 | 0.8 ± 0.05 | 1.6 ± 0.2 | MIC ([7]; ATCC7644): 16 µg/mL; MIC ([8]; ATCC12022): 64 µg/mL; MIC ([14]; ATCC25285): 32 µg/mL; MIC ([15]; DSMZ20087): 16 µg/mL; MIC ([16]; Bifidobacterium animalis): 32 µg/mL; MIC ([17]; ATCC29521): 32 µg/mL; MIC ([18]; ATCC15700): 32 µg/mL; MIC ([19]; Bifidobacterium longum): 64 µg/mL; MIC [21]: 32 µg/mL; MIC ([23]; read-out: x¯ -PB ± SD: mean MIC for probiotic bacteria): 37.3 ± 15 µg/mL; IC50 ([24]; HT-29, HT29, MTT, 72 h): 0.9 ± 0.2 µg/mL; IC80 ([24]; HT-29, HT29, MTT, 72 h): 1.8 ± 0.4 µg/mL; IC50 ([27]; read-out: IC50 ± SD): 1 ± 0.1 µg/mL; IC80 ([27]; read-out: IC80 ± SD (80% inhibitory concentration of proliferation)): 1.9 ± 0.2 µg/mL
CN[C@H](CC(C)C)C(=O)N[C@H]1C(=O)N[C@@H](CC(N)=O)C(=O)N[C@H]2C(=O)N[C@H]3C(=O)N[C@H](C(=O)N[C@H](C(=O)O)c4cc(O)cc(O)c4-c4cc3ccc4O)[C@H](O)c3ccc(c(Cl)c3)Oc3cc2cc(c3O[C@@H]2O[C@H](CO)[C@@H](O)[C@H](O)[C@H]2O[C@H]2C[C@](C)(N)[C@H](O)[C@H](C)O2)Oc2ccc(cc2Cl)[C@H]1O [VM, vancomycin hydrochloride] | 256 | 2 | 1 | > 512 | > 512 | 512 | 512 | 512 | 256 | > 512 | 513 ± 404 | 256 | 64 | > 512 | > 512 | > 512 | > 512 | MIC ([7]; ATCC7644, growth inhibited by ≥80%, read-out: MIC): 8 µg/mL; MIC ([8]; ATCC12022, […], read-out: MIC): > 512 µg/mL; MIC ([13]; both clostridial species tested, read-out: MICs): 0.5 to 8 µg/mL; MIC ([14]; ATCC25285, […], read-out: MIC): 32 µg/mL; MIC ([15]; DSMZ20087, […], read-out: MIC): 2 µg/mL; MIC ([16]; Bifidobacterium animalis spp. lactis, […], read-out: MIC): 2 µg/mL; MIC ([17]; ATCC29521, […], read-out: MIC): 4 µg/mL; MIC ([18]; ATCC15700, […], read-out: MIC): 4 µg/mL; MIC ([19]; Bifidobacterium longum ssp. longum, […], read-out: MIC): 2 µg/mL; MIC ([21]; Lactobacillus reuteri, […], read-out: MIC): 64 µg/mL; MIC ([23]; bifidobacteria, range over strains, read-out: MICs): 2 to 4 µg/mL; MIC ([23]; lactobacilli, range over strains, read-out: MICs): 64 to 256 µg/mL; MIC ([23]; mean of 9 strains, >512 replaced with 1024, read-out: x¯ -PB ± SD: mean MIC for probiotic bacteria): 47.8 ± 78 µg/mL; IC50 ([24]; HT-29, 72 h): > 512 µg/mL; IC80 ([24]; HT-29, 72 h): > 512 µg/mL; IC50 ± SD [27, 29]: - (Not active (MIC/IC50/80 > 512 μg/mL, the value 1024 μg/mL was used for average calculation)); IC80 ± SD (80% inhibitory concentration of proliferation) [27, 29]: - (Not active (MIC/IC50/80 > 512 μg/mL, the value 1024 μg/mL was used for average calculation)); IC50 ([27]; read-out: IC50 ± SD, FHs 74 Int (intestinal normal cells), MTT): > 512 µg/mL; IC80 ([27]; read-out: IC80 ± SD (80% inhibitory concentration of proliferation), FHs 74 Int (intestinal normal cells), MTT): > 512 µg/mL
